Test results as given in PMC6073423, “Dose-Dependent Increase in Unconjugated Cinnamic Acid Concentration in Plasma Following Acute Consumption of Polyphenol Rich Curry in the Polyspice Study” (Nutrients, 2018).
Read-outs that look alike come from different tables or passages of the source.

What was measured:
[1] = Plasma nutrikinetics of unconjugated phenolic/aromatic acids after curry test meals (LC-MS/MS, non-compartmental); conditions: for AUC(0-t) / Cmax: male, human; for plasma concentration: all three doses
From the text: The detailed methods for this Polyspice study have been described elsewhere. In brief, this was a three-way randomized, controlled, crossover, acute feeding trial in healthy Chinese males (age 23.7 ± 2.30 y, BMI 23.0 ± 2.31 kg/m^2). Three days prior to the main test day, each volunteer avoided vigorous physical activity and adopted a low polyphenol diet. To help adhere to a ‘low polyphenol diet’ in this run-in period, volunteers were provided with a list of polyphenol rich foods to avoid, which consisted of some fruits and fruit juices, spices and condiments, olive oil, certain vegetables, whole grain cereals, cocoa products, tea (including Green tea), coffee, red wine etc. […] On the main test day, the volunteers arrived at the study center in the morning after an overnight fasting period of a minimum of 10 h. On each of 3 test sessions, the volunteers consumed in random order 1 of 3 test meals: Dose 0 Control (D0C), Dose 1 Curry (D1C) and Dose 2 Curry (D2C). D0C, D1C, and D2C contained 0 g, 6 g, and 12 g mixed spices respectively. The mixed spices were prepared by thoroughly mixing dried powders of 7 different spices consisting of turmeric (Everest Spices, Mumbai, India), coriander seeds (Everest Spices, Mumbai, India), cumin seeds (Everest Spices, Mumbai, India), dried Indian gooseberry (‘amla’, Emblica officinalis, Ramdev Spices, Ahmedabad, India), cayenne pepper (Robertson’s, Durban, South Africa), cinnamon (McCormick’s, Baltimore, MD, USA), and clove (Robertson’s, South Africa) in the ratio of 8:4:4:4:2:1:1 respectively. The ‘base vegetables’ used in the curry recipes consisted of tomatoes, onions, ginger, and garlic in the ratio of 5:2:1:1, with D0C, D1C and D2C containing 0 g, 90 g, and 180 g base vegetables respectively. […] The 3 test meals were matched for total vegetable content by including 130 g peeled eggplant (Solanum melongena) and 50 g tomatoes to D0C and 90 g peeled eggplant to D1C. Plain white rice was consumed along with each test meal and the composition of all 3 test meals were isocaloric and macronutrients matched. A standardized lunch was served after the 3 h postprandial blood draw time point, consisting of a made-to-order chicken lasagna (TopChoice Food Industries (S) Pte Ltd., Singapore), which specifically excluded polyphenol-rich ingredients such as black pepper, herbs, spices, onion, garlic or ginger from the product’s original recipe. There was a minimum of 1-week washout period between each session.
The plasma sample was centrifuged at 1500 g for 10 min at 4 °C within 45 min of collection. Aliquots were stored at −80 °C until analysis.
The panel of phenolic/aromatic acids chosen for analyses were based on the predicted metabolic fate of polyphenols contained within the ingredients used in our test meals, as described above. […] Ultra-pure water from Adrona (Rīga, Latvija) was used. Unless otherwise stated, all chemicals and reagents were obtained from Sigma-Aldrich (St. Louis, MO, USA).
Stock solutions of 10 mM of each analyte were prepared in acetonitrile. Baseline (0 h) plasma was pooled from all participants and used as a matrix in equal volume for each calibration standard. […] All standard solutions were freshly prepared and kept in −20 °C prior to use.
Protein precipitation was undertaken using 400 μL acetonitrile containing 1 µM of BA-d5 internal standard was added to 100 μL of plasma, calibration, quality control or blank samples. The sample was centrifuged at 16,000 g for 15 min at 4 °C. 400 μL of the supernatant was recovered and evaporated under a nitrogen flow. Finally, extracts were reconstituted with 80 μL of 90% mobile phase A and 10% mobile phase B.

[2] = Compartmental nutrikinetic modeling of the CNA plasma concentration-time profile (one-compartment, first-order elimination); type: in vivo; conditions: male, human, oral; for AUC: read-out: AUC (one-compartment model); for Cmax: read-out: Cmax (one-compartment model); for k el: read-out: Ke, elimination rate constant (converted)
Experimental: Compartmental parameter estimates for CNA were determined after fitting of concentration data to several compartmental models on Phoenix WinNonlin (Table S3). The Gauss-Newton algorithm was applied and the final model selection was based on goodness-of-fit comparisons, examination of the residual plots, correlation of the observed and predicted values, and Akaike information criterion. 1/Y^2 model yielded the best fit amongst the various weighting schemes used (1/Y, 1/Y^2, and actual). The final nutrikinetic curve best fit into a one-compartment, first-order elimination, as described by:(1) C(T)=DKa/V (Ka−Ke) [e^−KeT−e^−KaT] where C is the plasma concentration, T is time, Ka is the first-order absorption rate, Ke is the first-order elimination rate constant, D is dose, and V is the apparent volume of distribution. Secondary parameters determined from the model included the Cmax, Tmax, AUC0–7 h as well as the terminal half-life.

[3] = cited from earlier work
[4] = design: method as in PMID 23604435; conditions: cited from earlier work
[5] = plasma, oral, 12 g mixed spices
[6] = 0 g mixed spices, D0C, Figure 2C
[7] = 6 g mixed spices, D1C, Figure 2C
[8] = 12 g mixed spices, D2C, Figure 2C

SMILES | AUC(0-t) ([1]; plasma, oral, 0 g mixed spices) | Cmax ([1]; plasma, oral, 0 g mixed spices) | AUC(0-t) ([1]; plasma, oral, 6 g mixed spices) | Cmax ([1]; plasma, oral, 6 g mixed spices) | AUC(0-t) [1, 5] | Cmax [1, 5] | further results
O=C(O)CCc1cccc(O)c1 [3-(3-hydroxyphenyl)-propanoic acid] | 0.182 ± 0.126 µM·h | 58.9 ± 39.1 nM | 0.283 ± 0.388 µM·h | 83.3 ± 79.5 nM | 0.226 ± 0.177 µM·h | 72.5 ± 48.6 nM | –
O=C(O)c1cccc(O)c1 [3-Hydoxybenzoic acid (3OH-BA), 3-hydroxybenzoic acid] | – | – | – | – | – | – | plasma concentration [1]: below detection limits
O=C(O)CNC(=O)c1ccc(O)cc1 [4-Hydroxyhippuric acid (4OH-HA), 4-hydroxyhippuric acid] | – | – | – | – | – | – | plasma concentration [1]: below detection limits
O=C(O)c1ccccc1 [Benzoic acid (BA), benzoic acid] | – | – | – | – | – | – | AUC(0-t) ([1]; in vivo, 0 g mixed spices): 0.348 ± 0.0868 µM·h; Cmax ([1]; in vivo, 0 g mixed spices): 114 ± 36.7 nM; AUC(0-t) ([1]; in vivo, 6 g mixed spices): 0.347 ± 0.107 µM·h; Cmax ([1]; in vivo, 6 g mixed spices): 113 ± 33.6 nM; AUC(0-t) ([1]; in vivo, 12 g mixed spices): 0.355 ± 0.123 µM·h; Cmax ([1]; in vivo, 12 g mixed spices): 109 ± 34.6 nM
O=C(O)CNC(=O)c1ccccc1 [Hippuric acid (HA), hippuric acid] | 1.83 ± 1.42 µM·h | 1290 ± 706 nM | 3.22 ± 3.1 µM·h | 1370 ± 1170 nM | 3.06 ± 1.8 µM·h | 1080 ± 616 nM | maximum concentration in plasma ([1]; most abundant phenolic acid in plasma, Table 1): above 1200 nM; half-life [4]: 1320 min
O=C(O)Cc1ccccc1 [Phenylacetic acid (PAA), phenylacetic acid] | – | – | – | – | – | – | AUC(0-t) ([1]; in vivo, 0 g mixed spices): 1.74 ± 1.24 µM·h; Cmax ([1]; in vivo, 0 g mixed spices): 433 ± 287 nM; AUC(0-t) ([1]; in vivo, 6 g mixed spices): 4.44 ± 2.97 µM·h; Cmax ([1]; in vivo, 6 g mixed spices): 1020 ± 826 nM; AUC(0-t) ([1]; in vivo, 12 g mixed spices): 4.13 ± 2.95 µM·h; Cmax ([1]; in vivo, 12 g mixed spices): 1000 ± 666 nM

Further lines, with some results ahead:

AUC(0-t) ([1]; plasma, oral, 0 g mixed spices) | Cmax ([1]; plasma, oral, 0 g mixed spices) | AUC(0-t) ([1]; plasma, oral, 6 g mixed spices) | Cmax ([1]; plasma, oral, 6 g mixed spices) | AUC(0-t) [1, 5] | Cmax [1, 5] | SMILES | further results
0.126 ± 0.115 µM·h | 31.4 ± 25 nM | 0.178 ± 0.12 µM·h | 48.6 ± 36.6 nM | 0.261 ± 0.132 µM·h | 81.7 ± 102 nM | O=C(O)CCc1ccc(O)cc1 [3-(4-hydroxyphenyl)-propanoic acid] | –
0.0707 ± 0.0616 µM·h | 26.3 ± 22.5 nM | 0.0801 ± 0.0683 µM·h | 27.4 ± 19.1 nM | 0.0884 ± 0.0854 µM·h | 31.3 ± 26.5 nM | O=C(O)CNC(=O)c1cccc(O)c1 [3-Hydroxyhippuric acid (3OH-HA), 3-hydroxyhippuric acid] | –
0.101 ± 0.112 µM·h | 28.1 ± 26.2 nM | 0.106 ± 0.07 µM·h | 27.2 ± 15.8 nM | 0.113 ± 0.0904 µM·h | 29.1 ± 20.5 nM | O=C(O)Cc1cccc(O)c1 [3-Hydroxyphenylacetic acid (3OH-PAA), 3-hydroxyphenylacetic acid] | –
0.831 ± 0.784 µM·h | 279 ± 322 nM | 2.39 ± 4.37 µM·h | 731 ± 1220 nM | 1.86 ± 3.43 µM·h | 554 ± 985 nM | O=C(O)CCc1ccccc1 [3-Phenylpropanoate acid (PPA), 3-phenylpropanoic acid] | –
0.036 ± 0.0233 µM·h | 13.7 ± 9.9 nM | 0.0542 ± 0.0346 µM·h | 18.3 ± 12.4 nM | 0.114 ± 0.207 µM·h | 41.5 ± 101 nM | O=C(O)c1ccc(O)cc1 [4-Hydroxybenzoic acid (4OH-BA), 4-hydroxybenzoic acid] | –
2.07 ± 1.45 µM·h | 566 ± 322 nM | 2.38 ± 1.07 µM·h | 667 ± 305 nM | 2.17 ± 1.07 µM·h | 633 ± 285 nM | O=C(O)Cc1ccc(O)cc1 [4-Hydroxyphenylacetic acid (4OH-PAA), 4-hydroxyphenylacetic acid] | –
0.0084 ± 0.0034 µM·h | 2.4 ± 0.7 nM | 0.376 ± 0.105 µM·h | 164 ± 47.7 nM | 0.876 ± 0.292 µM·h | 342 ± 83 nM | O=C(O)/C=C/c1ccccc1 [Cinnamic acid (CNA), cinnamic acid] | AUC [2, 6]: 0.0254 µM·h; Cmax [2, 6]: 2.73 nM; k el [2, 6]: 8.06e-05 s⁻¹; half-life ([2]; 0 g mixed spices, D0C, Figure 2C, read-out: T0.5, half-life (converted)): 142 min; Tmax ([2]; 0 g mixed spices, D0C, Figure 2C, read-out: Tmax (one-compartment model)): 205 min; AUC [2, 7]: 0.347 µM·h; Cmax [2, 7]: 144 nM; k el [2, 7]: 0.000297 s⁻¹; half-life ([2]; 6 g mixed spices, D1C, Figure 2C, read-out: T0.5, half-life (converted)): 39 min; Tmax ([2]; 6 g mixed spices, D1C, Figure 2C, read-out: Tmax (one-compartment model)): 56.4 min; AUC [2, 8]: 0.847 µM·h; Cmax [2, 8]: 323 nM; k el [2, 8]: 0.000289 s⁻¹; half-life ([2]; 12 g mixed spices, D2C, Figure 2C, read-out: T0.5, half-life (converted)): 40.2 min; Tmax ([2]; 12 g mixed spices, D2C, Figure 2C, read-out: Tmax (one-compartment model)): 58.2 min; half-life ([2]; no lag time, 1st order absorption, 1st order elimination, 1-compartment model, assumes elimination is rate-limiting, read-out: average elimination half-life (converted)): 39.6 min; Tmax ([2]; no lag time, 1st order absorption, 1st order elimination, 1-compartment model, read-out: Tmax (average, compartmental model)): 57.6 min; time of plasma peak post consumption ([1]; D1C and D2C): approximately 1 h; time of secondary peak in plasma ([1]; D1C and D2C periods, Figure 2A): around 3 h; fraction eliminated via oxidation (β-oxidation) and subsequent glycine conjugation to form HA [3]: 63%
